Our source for the IC50 values is patent US20240352016A1, “A CYCLIN-DEPENDENT KINASE INHIBITOR” (TAIZHOU EOC PHARMA CO., LTD., priority 2021, published 2024).

The structures appear in SMILES notation. Where only a bound is given, the exact number is not on record here.

One assay has as its system OVCAR3. Description: Inhibition of cell proliferation (CyQuant), OVCAR3. In kind it is cell-based. Particulars: Homo sapiens, OVCAR-3; OVCAR3 ovarian cancer cell line, 120 hour, CyQuant assay kit. The protocol:
(§1) Exemplary compounds of the invention were tested at different concentrations (from 10 μM to 610 pM; 4-fold serial dilutions) for their ability to inhibit the proliferation of various cancer cell lines. Known kinase inhibitor staurosporine were used as positive controls. Cells were grown in the indicated media listed below. All cell lines were supplemented with FBS (Life Technologies) and 100 U-mL^−1 penicillin, 100 μg·mL^−1 streptomycin (Invitrogen) and cultured at 37° C. in a humidified chamber in the presence of 5% CO2. Proliferation assays were conducted over a 120 hour time period. CyQuant assay kit (ThermoFisher) was used to assess the anti-proliferative effects of the compounds following manufacturer's directions.
(§2) The following cancer cell lines may be tested with the exemplary media conditions indicated:
• OVCAR3: RPMI 1640+0.01 mg/mi bovine insulin+20% FBS+1% Glutamax
(§3) Exemplary results of these assays are set forth in Tables 3, where “A” represents an IC50 value of less than 0.2 μM; “B” represents an IC50 value of between 0.2 μM and 5 μM, inclusive; and “C” represents an IC50 value of greater than 5 μM. “NT” represents that the specified compound was not tested in the specified assay.

A further assay relates to HCC70. Description: Inhibition of cell proliferation (CyQuant), HCC70. Particulars: Homo sapiens; HCC70 breast cancer cell line, 120 hour, CyQuant assay kit. In kind it is cell-based. Here is the method: as §1, §2, §3
In the next assay the target is T1, CDK7/Cyclin H/MAT1 (Homo sapiens, UniProt P50613).
T1 construct: made in house; host or cells: insect cell
T1 sequence (P50613 whole entry): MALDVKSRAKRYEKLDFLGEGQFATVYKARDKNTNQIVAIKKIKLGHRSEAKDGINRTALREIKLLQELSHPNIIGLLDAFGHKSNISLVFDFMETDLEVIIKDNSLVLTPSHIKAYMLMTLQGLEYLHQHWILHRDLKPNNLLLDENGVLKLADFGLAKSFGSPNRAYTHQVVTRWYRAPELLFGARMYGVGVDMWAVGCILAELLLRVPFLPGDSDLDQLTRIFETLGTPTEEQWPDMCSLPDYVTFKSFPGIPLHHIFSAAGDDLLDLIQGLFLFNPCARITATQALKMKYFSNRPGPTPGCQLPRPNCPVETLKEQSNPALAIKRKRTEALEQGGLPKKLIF
T1 sequence (P51946 whole entry partner): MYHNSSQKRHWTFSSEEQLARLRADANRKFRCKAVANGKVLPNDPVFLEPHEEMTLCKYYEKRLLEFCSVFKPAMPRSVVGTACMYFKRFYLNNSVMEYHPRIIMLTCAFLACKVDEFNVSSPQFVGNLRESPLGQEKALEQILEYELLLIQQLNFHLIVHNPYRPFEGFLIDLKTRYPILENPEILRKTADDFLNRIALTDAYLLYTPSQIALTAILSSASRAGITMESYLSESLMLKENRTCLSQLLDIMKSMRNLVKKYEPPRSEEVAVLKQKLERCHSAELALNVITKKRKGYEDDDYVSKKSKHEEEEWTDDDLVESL
T1 sequence (P51948 whole entry partner): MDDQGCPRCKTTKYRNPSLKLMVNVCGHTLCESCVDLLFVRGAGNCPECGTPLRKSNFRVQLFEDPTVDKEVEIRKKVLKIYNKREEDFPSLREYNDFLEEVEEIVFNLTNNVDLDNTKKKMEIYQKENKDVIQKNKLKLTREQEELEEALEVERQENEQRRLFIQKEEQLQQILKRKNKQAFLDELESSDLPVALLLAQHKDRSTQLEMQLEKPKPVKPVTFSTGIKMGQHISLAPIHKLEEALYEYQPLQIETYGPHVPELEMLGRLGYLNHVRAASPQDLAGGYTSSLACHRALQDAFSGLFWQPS
Put plainly: CDK kinase activity mobility shift assay (MSA). Particulars: The CDK may be CDK7; mobility shift assay, 2 mM ATP, 3 nM CDK/Cyclin, 27° C. for 40 min; read-out: IC50 (CDK inhibition). The assay is classed as biochemical. Here is the method: Human CDKs, cyclins and other partner proteins were expressed in insect cell, purified individually, reconstituted and then purified to homogeneity before being used for kinase activity assay.
Kinase activity of CDKs were determined by mobility shift assay (MSA), in which the formation of a phosphorylated fluorescence-labelled peptide in reaction mixture was monitored through capillary electrophoresis in a microfluidic environment. […] The mixtures were incubated at 27° C. for 40 min before being quenched with 4 μl 80 mM EDTA, then read on a LabChip EZ Reader II (Caliper Life Science). IC50 of compound for CDKs was calculated by Prism (GraphPad) using a four-parameter nonlinear curve fit.

One may read the IC50 as the concentration that inhibits the measured activity by half. `CC(C)n1cnc2c(NCc3ccccc3-c3cnn(C)c3)nc(N3CCC(N)CC3)nc21` [Compound I-8, 2-(4-aminopiperidin-1-yl)-9-isopropyl-N-(2-(1-methyl-1H-pyrazol-4-yl)benzyl)-9H-purin-6-amine]: the IC50 in the assay with OVCAR3 is < 200 nM; in the assay on HCC70, 200 to 5000 nM; at CDK7/Cyclin H/MAT1 it was < 100 nM.

As for `CC(C)n1cnc2c(NCc3ccccc3-n3cccn3)nc(N3CCC[C@H](N)C3)nc21` [Compound I-10, (S)—N-(2-(1H-pyrazol-1-yl)benzyl)-2-(3-aminopiperidin-1-yl)-9-isopropyl-9H-purin-6-amine], the IC50 in the assay on OVCAR3 was 200 to 5000 nM; with HCC70 it was 200 to 5000 nM; at CDK7/Cyclin H/MAT1, < 100 nM.

`CC(C)n1cnc2c(NCc3ccccc3-c3ccnn3C)nc(N3CCC(N)CC3)nc21` [Compound I-12, 2-(4-aminopiperidin-1-yl)-9-isopropyl-N-(2-(1-methyl-1H-pyrazol-5-yl)benzyl)-9H-purin-6-amine]: the values for the IC50 in the assay with OVCAR3, in the assay on HCC70 and on CDK7/Cyclin H/MAT1 were < 200 nM, < 200 nM and < 100 nM, respectively.

Regarding `CC(C)n1cnc2c(NCc3ccccc3-n3ccc(C(C)(C)O)n3)nc(N3CCC(N)CC3)nc21` [Compound I-16, 2-(1-(2-(((2-(4-aminopiperidin-1-yl)-9-isopropyl-9H-purin-6-yl)amino)methyl)phenyl)-1H-pyrazol-3-yl)propan-2-ol], the IC50 in the assay with OVCAR3 was < 200 nM; with HCC70, < 200 nM; on CDK7/Cyclin H/MAT1 it was < 100 nM.

`CNC1CCN(c2nc(NCc3ccccc3-n3cccn3)c3ncn(C(C)C)c3n2)CC1` [Compound I-19, N-(2-(1H-pyrazol-1-yl)benzyl)-9-isopropyl-2-(4-(methylamino)piperidin-1-yl)-9H-purin-6-amine]: the figures for the IC50 with OVCAR3, in the assay with HCC70 and at CDK7/Cyclin H/MAT1 were < 200 nM, < 200 nM and < 100 nM, respectively.
